Source: patent US5283256A, “Cholesterol-lowering agents” (Merck & Co., Inc., priority 1992, dated 1994)

What was measured:
[1] = target: T1, squalene synthase (rat liver enzyme) (Rattus norvegicus, UniProt Q02769); test: Squalene synthase assay, rat liver microsomes; type: biochemical; conditions: 3H-farnesyl pyrophosphate, 30° C., 20 min
T1 construct: from tissue; host or cells: liver microsomes of male Charles River CD rats fed lovastatin
T1 sequence (Q02769 1-416): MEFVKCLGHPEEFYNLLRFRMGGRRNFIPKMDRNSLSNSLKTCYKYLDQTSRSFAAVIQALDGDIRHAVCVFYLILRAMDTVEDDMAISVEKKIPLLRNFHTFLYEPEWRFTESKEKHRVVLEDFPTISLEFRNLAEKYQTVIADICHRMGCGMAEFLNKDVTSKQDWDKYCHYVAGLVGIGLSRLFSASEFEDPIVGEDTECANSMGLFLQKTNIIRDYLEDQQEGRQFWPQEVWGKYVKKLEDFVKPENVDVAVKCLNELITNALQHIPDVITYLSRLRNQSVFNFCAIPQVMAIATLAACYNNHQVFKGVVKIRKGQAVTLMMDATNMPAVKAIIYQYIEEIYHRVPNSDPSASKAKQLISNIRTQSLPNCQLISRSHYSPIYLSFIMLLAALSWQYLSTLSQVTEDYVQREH
Protocol: The intrinsic squalene synthase inhibitory activity of representative compounds of this invention was measured by the standard in vitro protocol described below: […] Male, CHARLES RIVER CD rats (120 to 150 g) were fed a diet containing 0.1% lovastatin for 4 days. […] The homogenate was centrifuged twice at 20,000×g for 15 min. at 4° C., discarding the pellet each time. The supernatant was then centrifuged at 100,000×g for 1 hr at 4° C. The resulting microsomal pellet was resuspended in a volume of the above homogenizing buffer equal to one-fifth the volume of the original homogenate. […] The microsomal suspensions were stored in aliquots at -70° C. squalene synthase activity in these aliquots is stable for a least several months. Squalene Synthase Assay Reactions were performed in 1.2 mL polypropylene tube strips of 8. Buffer mixture and substrate mixture for the assay were prepared from the following solution: Buffer mixture contains 270 mM HEPES, pH 7.5, 20 mM Potassium fluoride and 5.4 mM Dithiothreitol (DTT). […] 400 μL of heptane layer was then removed into a minivial and mixed with 2.5 mL of scintillation fluid and the radioactivity was determined by liquid scintillation counting. […] Percent inhibition is calculated by the formula: [formula] IC50 values were determined by plotting the log of the concentration of the test compound versus the percentage inhibition. […]

[2] = target: farnesyl transferase (Homo sapiens, UniProt P49354+P49356); test: Farnesyl-transferase assay (Ras farnesylation in vitro); type: biochemical; conditions: ras-CVLS, 3H-FPP 100 nM; 60 min, room temperature; read-out: Farnesyl transferase IC50 (inhibition of Ras farnesylation in vitro)
Protocol: FARNESYL-TRANSFERASE ASSAY
I. PREPARATION OF SOLUTIONS REQUIRED FOR THE ASSAY
203.3 g MgCl2 was dissolved in 1.0 L distilled water, and filtered through a sterile filter and stored at 4° C.
264.5 g of HEPES was added to 700 mL distilled water followed by 56 mL of 1.0M MgCl2 The pH was adjusted to 7.5 with sodium hydroxide and the volume was brought to 1000 mL. The solution was filtered through a sterile filter and stored at 4° C.
iii. 0.5M Dithiothreitol (DTT, MW=154.24)
77.12 mg of DTT was dissolved in 1.0 mL of distilled water. A few drops of 10N NaOH was added to get the DTT to go into solution. 0.5M DTT was divided into 500 μL aliquots and stored at -20° C.
iv. Preparation of Assay Buffer (Prepare fresh daily)
100 μL of 0.5M DTT was added to 900 μL of 1.1M HEPES, pH 7.5 and 55.5 mM MgCl2 to yield a 10X buffer consisting of 1.0M HEPES, pH 7.5, 50 mM MgCl2 and 50 mM DTT.
v. Preparation of ^3 H-FPP
The ^3 H-FPP (NEN #NET-1042, MW=433.3) was used directly from the bottle as provided by NEN. The stock concentration of the ^3 H-FPP was 25 μM.
vi. Preparation of the reaction mix for Totals and unknown samples (on ice)
The reaction mix was prepared as below: […]
x. The filter mats were placed in counting bags, 30 mL of LKB β-scint cocktail was added and the filter mats were counted for 120 sec in the LKB β-plate counter […]
Percent inhibition was calculated according to the following equation: [formula] […]

[3] = target: T2, squalene synthase (human HepG2 enzyme) (Homo sapiens, UniProt P37268); test: Squalene synthase assay, human HepG2 cell enzyme; type: biochemical; conditions: 3H-farnesyl pyrophosphate, 30° C., 20 min
T2 construct: The resulting pellet from the 100,000×g centrifugation, containing the squalene synthase; endogenous in cells; host or cells: HepG2 (ATCC HB 8065), microsomal pellet of sonicated cells
T2 sequence (P37268 1-417): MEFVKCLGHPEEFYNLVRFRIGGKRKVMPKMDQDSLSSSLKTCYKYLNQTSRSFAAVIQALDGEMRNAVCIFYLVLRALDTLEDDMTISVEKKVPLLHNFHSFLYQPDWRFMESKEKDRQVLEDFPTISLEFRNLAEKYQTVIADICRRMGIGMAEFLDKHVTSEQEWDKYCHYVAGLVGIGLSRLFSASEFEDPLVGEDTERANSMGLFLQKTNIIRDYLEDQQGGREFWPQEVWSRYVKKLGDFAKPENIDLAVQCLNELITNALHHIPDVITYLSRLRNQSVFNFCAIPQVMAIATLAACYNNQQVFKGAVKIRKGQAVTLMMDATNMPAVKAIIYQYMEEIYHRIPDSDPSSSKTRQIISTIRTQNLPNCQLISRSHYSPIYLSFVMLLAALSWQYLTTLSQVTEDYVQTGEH
Protocol: The intrinsic squalene synthase inhibitory activity of representative compounds of this invention was measured by the standard in vitro protocol described below:
PREPARATION OF HUMAN HepG2 Cell ENZYME
1. SOURCE: HEPG2 CELL LINE (Liver, hepatoblastoma, Human) ATCC No. HB 8065
2. CELL GROWTH AND MAINTENANCE
Culture Medium: Minimum essential medium (MEM) with non-essential amino acids, sodium pyruvate, and 10% fetal bovine serum. The medium was changed twice weekly. […] The growth medium was prepared as listed below.
SUBCULTURE PROCEDURE: The medium was removed and washed with PBS (Phosphate-Buffered Saline 15.6 mM, pH 7.0). Fresh trypsin (0.25%)-EDTA (0.02%) with Hank's Balanced Salt solution was added and the flask was allowed to stand for a minute before the trypsin solution was removed. The flask was incubated at 37° C. until cells detached. Fresh medium was added and the cells were dispersed and dispensed into new flasks. Subcultivation ratio: 1:6. […]
HARVEST: The medium was removed and the cells were washed with PBS. […] Cells were counted (2.5×10^9 yield from 18 flasks (75 cm^2)), and resuspended in 10 mL of 50mM HEPES (N-[2-Hydroxyethyl]piperazine-N'-[2-ethane sulfonic acid]) containing 5 mM MgCl2, 2 mM MnCl2, 10 mM DTT, pH 7.5 (enzyme suspension buffer). […]

[4] = test system: Ras farnesylation; conditions: Hancock et al., Casey et al., Schafer et al.; cited from earlier work

IC50 [1] | IC50 [2] | IC50 [3] | SMILES | Inhibition of Ras farnesylation in vivo (in words) [4]
6 nM | 100 nM | 2 nM | CCCCCCCCCC(=O)OC1C(O)C2(CCCC(OC(C)=O)C(C)C/C=C/c3ccccc3)OC(C(=O)O)C(O)(C(=O)O)C1(C(=O)O)O2 (centres unmarked) [Zaragozic Acid D2] | 
6 nM | 100 nM | 1 nM | CCCCCCCC(=O)OC1C(O)C2(CCCC(OC(C)=O)C(C)C/C=C/c3ccccc3)OC(C(=O)O)C(O)(C(=O)O)C1(C(=O)O)O2 (centres unmarked) [Zaragozic Acid D] | 
 |  |  | CC[C@H](C)C(=O)O[C@H]1CCC=C2C=C[C@H](C)[C@H](CC[C@@H]3C[C@@H](O)CC(=O)O3)[C@H]21 [compactin] | Inhibition of Ras farnesylation in vivo has been demonstrated
 |  |  | CC[C@H](C)C(=O)O[C@H]1C[C@@H](C)C=C2C=C[C@H](C)[C@H](CC[C@@H]3C[C@@H](O)CC(=O)O3)[C@H]21 [lovastatin] | Inhibition of Ras farnesylation in vivo has been demonstrated
